Experiments:
ZR-75-1/vector cells = test: Viable cell number by trypan blue exclusion, ZR-75-1/vector; type: cell-based, human; conditions: 5 μM
Method: FIGS. 4A-E. Selectivity of MUC1/CQC for MUC1 expressing breast cancer cells. (FIG. 4A) ZR-75-1 cells were stably infected with an empty lentivirus (vector) or one expressing a MUC1 siRNA. Lysates for the infected cells were immunoblotted with the indicated antibodies. (FIG. 4B) ZR-75-1/vector cells were left untreated (diamonds), and ZR-75-1/vector (squares) and ZR-75-1/MUC1 siRNA (triangles) cells were treated with 5 μM MUC1/CQC peptide for the indicated times. Viable cell number was determined by trypan blue exclusion. (FIG. 4C) 293 cells were left untreated (diamonds), and treated with 5 μM MUC1/CQC (squares) or MUC1/AQA (triangles) for the indicated times. Viable cell number was determined by trypan blue exclusion. (FIG. 4D) MCF-10A cells were left untreated (left panel), and treated with 5 μM MUC1/CQC (middle panel) or MUC1/AQA (right panel). At 3 d, cells were analyzed for cell cycle distribution. […] Viable cell number was determined by trypan blue exclusion.
Human breast cancer ZR-75-1, ZR-75-1/vector, ZR-75-1/MUC1siRNA (Ren et al., 2004) cell lines were grown in RPMI1640 medium supplemented with 10% heat-inactivated fetal bovine serum (HI-FBS), 100 U/ml penicillin, and 100 μg/ml streptomycin (Invitrogen) in a humidified incubator at 37° C. and 5% CO2. […] Viability was determined by trypan blue exclusion.

[1] = Body weight of nude mice given peptide; type: in vivo, nude (nu/nu) mice
Method: To determine if administration of the MUC1/CQC peptide is associated with effects on body weight, five female nude (nu/nu) mice were injected intraperitoneally (IP) once each day at a dose of 50 mg/kg. […] To assess anti-tumor activity, ZR-75-1 cells (1×10^7) were implanted subcutaneously into the flanks of nude mice. After 12 d, mice bearing tumors of approximately 150 mm^3 were treated with the MUC1/CQC peptide at doses of 10 and 50 mg/kg/d. As controls, mice were treated with vehicle alone or with the MUC1/AQA peptide. Administration of the MUC1/CQC peptide at 10 mg/kg/d×21 d slowed growth as compared to that obtained with the MUC1/AQA peptide given at 50 mg/kg/d (FIG. 5A). […] Consequently, treatment was stopped and the mice were monitored for regrowth. […] To assess in part the basis for the activity, tumors harvested from control and treated mice were examined by histopathology. […] Sections of the tumors were also stained with an antibody against MUC1.

MUC1-C = biological target: T1, MUC1-C (Homo sapiens, UniProt P15941); test: Immunoblot of nuclear MUC1-C levels in MCF-7 cells (peptide); type: cell-based; design: Human ZR-75-1 and MCF-7 breast cancer cells overexpress endogenous MUC1; endogenous in cells; host or cells: ZR-75-1; MCF-7; conditions: MCF-7, 5 μM peptide, 3 d
T1 sequence (P15941 1098-1255 limits assumed): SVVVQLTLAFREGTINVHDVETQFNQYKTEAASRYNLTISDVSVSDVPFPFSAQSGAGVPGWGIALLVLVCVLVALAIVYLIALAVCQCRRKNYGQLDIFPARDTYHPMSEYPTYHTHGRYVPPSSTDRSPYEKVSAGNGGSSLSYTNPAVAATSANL
Method: FIGS. 2A-C. MUC1/CQC peptide blocks nuclear localization of MUC1-C. (FIG. 2A) ZR-75-1 cells were incubated with 5 μM FITC-labeled MUC1/CQC peptide for the indicated times and then analyzed by flow cytometry. The mean fluorescence index (MFI) is included in each of the panels. (FIGS. 2B-C) ZR-75-1 (FIG. 2B) and MCF-7 (FIG. 2C) cells were incubated in the presence of 5 μM MUC1/CQC or MUC1/AQA peptide for 3 d. Whole cell lysates (WCL) (left panels) and nuclear lysates (right panels) were immunoblotted with the indicated antibodies.
Whole cell and nuclear lysates were prepared as described (Leng et al., 2007). Soluble proteins were subjected to immunoprecipitation with anti-Flag (Sigma, St. Louis, Mo.). Immunoprecipitates and soluble proteins were analyzed by immunoblotting with anti-His (Cell Signaling Technology, Danvers, Mass.), anti-GFP (Millipore, Danvers, Mass.), anti-Flag, anti-MUC1-C (Ab1; NeoMarkers, Fremont, Calif.), anti-lamin B (EMD, La Jolla, Calif.) or anti-β-actin (Sigma). Reactivity was detected with horseradish peroxidase-conjugated second antibodies and chemiluminescence.

MCF-7 cells = test: MCF-7 cell number (MTS), caspase-9 cleavage, PI uptake and colony formation; type: cell-based, human; conditions: for colony formation: 2 weeks
Method: FIGS. 14A-E—Apigenin suppresses MUC1 expression in MCF-7 cells. (FIG. 14A) MCF-7 cells were treated with DMSO vehicle, 75 μM apigenin or 75 μM baicalein for 3 d. Total RNA was assayed for MUC1 mRNA levels by qRTPCR. The results (mean+SD of 3 determinations) are expressed as relative MUC1 mRNA levels as compared to that obtained in cells treated with DMSO. (FIGS. 14B-C) MCF-7 cells were treated with the indicated concentrations of apigenin and baicalein for 3 days. Nuclear (FIG. 14B) and whole cell lysates (FIG. 14C) were immunoblotted with the indicated antibodies. D. Lysates from MCF-7 cells were infected to stably express a control lentivirus and one with a MUC1 shRNA were immunoblotted with the indicated antibodies. (FIG. 14E) The indicated MCF-7 cells were treated with […] apigenin for 3 d. Viable cell number was determined by the MTS assay. The results (mean+SD of 3 determinations) are expressed as percentage of control growth in the presence of DMSO.
FIGS. 15A-C—Apigenin inhibits MCF-7 clonogenic survival. (FIG. 15A) MCF-7 cells were treated with DMSO, 75 μM apigenin or 75 μM baicalein for 3 d. Lysates were immunoblotted with the indicated antibodies. (FIG. 15B) MCF-7 cells were treated with DMSO, 75 μM apigenin or 75 μM baicalein for 3 d, stained with propidium iodide and analyzed by flow cytometry. […] (FIG. 15C) MCF-7 cells were plated at a density of 1000 cells/6 cm dish. At 24 h after seeding, DMSO or apigenin at concentrations of 25, 50 and 75 μM was added to the medium. After 2 weeks, colonies were stained with crystal violet. The results (mean+SD of 3 determinations) are expressed as percentage of control colony formation in the presence of DMSO.

SMILES | growth / viable cell number (ZR-75-1/vector cells) | body weight ([1]; 50 mg/kg IP once each day over 11 d) | body weight ([1]; next 28 d after stopping administration, data not shown) | nuclear MUC1-C levels (MUC1-C) | colony formation (MCF-7 cells; MCF-7, 25 μM) | caspase-9 cleavage (MCF-7 cells; MCF-7, 75 μM, 3 d) | cell membrane integrity (PI) (MCF-7 cells; MCF-7, 75 μM, 3 d) | effect of silencing MUC1 (shRNA) on apigenin-induced decreases in cell number (MCF-7 cells; MCF-7, 75 µM, 3 d, MTS) | colony formation (MCF-7 cells; MCF-7, higher concentrations (50 and 75 μM))
CC[C@H](C)[C@H](NC(=O)[C@H](CC(=O)O)NC(=O)[C@H](CC(C)C)NC(=O)[C@H](CCC(N)=O)NC(=O)CNC(=O)[C@H](Cc1ccc(O)cc1)NC(=O)[C@H](CC(N)=O)NC(=O)[C@H](CCCCN)NC(=O)[C@H](CCCNC(=N)N)NC(=O)[C@H](CCCNC(=N)N)NC(=O)[C@H](CS)NC(=O)[C@H](CCC(N)=O)NC(=O)[C@H](CS)NC(=O)[C@@H](CCCNC(=N)N)NC(=O)[C@@H](CCCNC(=N)N)NC(=O)[C@@H](CCCNC(=N)N)NC(=O)[C@@H](CCCNC(=N)N)NC(=O)[C@@H](CCCNC(=N)N)NC(=O)[C@@H](CCCNC(=N)N)NC(=O)[C@@H](CCCNC(=N)N)NC(=O)[C@@H](CCCNC(=N)N)NC(=O)[C@H](N)CCCNC(=N)N)C(=O)N[C@@H](Cc1ccccc1)C(=O)N1CCC[C@H]1C(=O)O [MUC1/CQC] | growth arrest and death | no apparent effect | no subsequent effect | down-regulation of nuclear MUC1-C levels | – | – | – | – | –
O=c1cc(-c2ccc(O)cc2)oc2cc(O)cc(O)c12 [Apigenin, 4′,5,7-trihydroxyflavone] | – | – | – | – | substantial decrease in colonies | cleavage of caspase-9 | loss of cell membrane integrity | partially decreased sensitivity | complete loss of survival

Source: patent publication US8952054B2, “Small molecule inhibitors of MUC1 and methods of identifying the same” (Dana-Farber Cancer Institute, Inc., priority 2010, dated 2015)
